What all share (test): Glasshouse herbicide test, pre- and post-emergence, percentage damage
What all share (format): in vivo

Assay [1] has as its system Alopecurus myosuroides (ALOMY). The note with it: 250 g/h, evaluated after 13 days, percentage damage on five point scale; for ALOMY POST: post-emergence; for ALOMY PRE: pre-emergence. How it is done:
(§1) Seeds of a variety of test species are sown in standard soil in pots (Lolium perenne (LOLPE), Setaria faberi (SETFA), Alopecurus myosuroides (ALOMY), Echinochloa crus-galli (ECHCG), Avena fatua (AVEFA)). After cultivation for one day (pre-emergence) or after 8 days cultivation (post-emergence) under controlled conditions in a glasshouse (at 24/16° C., day/night; 14 hours light; 65% humidity), the plants are sprayed with an aqueous spray solution derived from the formulation of the technical active ingredient in acetone/water (50:50) solution containing 0.5% Tween 20 (polyoxyethelyene sorbitan monolaurate, CAS RN 9005-64-5). Compounds are applied at […]. The test plants are then grown in a glasshouse under controlled conditions in a glasshouse (at 24/16° C., day/night; 14 hours light; 65% humidity) and watered twice daily. After 13 days for pre and post-emergence, the test is evaluated for the percentage damage caused to the plant. The biological activities are shown in the following table on a five point scale (5=80-100%; 4=60-79%; 3=40-59%; 2=20-39%; 1=0-19%).

The test system of assay [2] is Echinochloa crus-galli (ECHCG). The note with it: 250 g/h, evaluated after 13 days, percentage damage on five point scale; for ECHCG PRE: pre-emergence; for ECHCG POST: post-emergence. How it is done:
as §1

For the next assay, the system named is Lolium perenne (LOLPE). The note with it: 250 g/h, evaluated after 13 days, percentage damage on five point scale; for LOLPE POST: post-emergence; for LOLPE PRE: pre-emergence. How it is done:
as §1

A further assay concerns Setaria faberi (SETFA). The settings on record: 250 g/h, evaluated after 13 days, percentage damage on five point scale; for SETFA POST: post-emergence; for SETFA PRE: pre-emergence. How it is done: as §1
Another assay relates to Avena fatua (AVEFA). The note with it: 250 g/h, evaluated after 13 days, percentage damage on five point scale; for AVEFA POST: post-emergence; for AVEFA PRE: pre-emergence. How it is done: as §1

Turning to `COc1cc(-c2ccc(C#N)cn2)cc(OC)c1C1C(=O)CC2(CCN(C(C)=O)CC2)CC1=O` [Compound A16], in assay [1], the “ALOMY POST” value is 5 (5=80-100%) and the “ALOMY PRE” value is given as 1 (1=0-19%). Moreover, the “ECHCG PRE” value in assay [2] is recorded as 5 (5=80-100%). In the assay on Lolium perenne (LOLPE), the “LOLPE POST” value was 4 (4=60-79%) and the “LOLPE PRE” value is listed as 3 (3=40-59%). Also, in the assay on Setaria faberi (SETFA), the “SETFA POST” value was 5 (5=80-100%) and the “SETFA PRE” value is reported as 4 (4=60-79%). Further, in the assay with Avena fatua (AVEFA), the “AVEFA POST” value is listed as 5 (5=80-100%) and the “AVEFA PRE” value is recorded as 4 (4=60-79%).

For the molecule `CON1CCC2(CC1)CC(=O)C(c1c(C)cc(-n3cc(Cl)cn3)cc1C)C(=O)C2` [Compound A5], in assay [1], the “ALOMY POST” value is given as 5 (5=80-100%) and the “ALOMY PRE” value is 5 (5=80-100%). For the same molecule, in assay [2], the “ECHCG POST” value is given as 5 (5=80-100%) and the “ECHCG PRE” value is listed as 5 (5=80-100%). In the assay with Lolium perenne (LOLPE), the “LOLPE POST” value is given as 5 (5=80-100%) and the “LOLPE PRE” value is 5 (5=80-100%). Further, in the assay with Setaria faberi (SETFA), the “SETFA POST” value is reported as 5 (5=80-100%) and the “SETFA PRE” value is 5 (5=80-100%). Besides, in the assay with Avena fatua (AVEFA), the “AVEFA POST” value is given as 5 (5=80-100%) and the “AVEFA PRE” value was 5 (5=80-100%).

Take `CCS(=O)(=O)N1CCC2(CC1)CC(=O)C(c1c(C)cc(-c3ccc(C#N)cn3)cc1C)C(=O)C2` [Compound A22]: in assay [1], the “ALOMY POST” value is reported as 5 (5=80-100%) and the “ALOMY PRE” value was 5 (5=80-100%). In addition, the “ECHCG PRE” value in assay [2] is 5 (5=80-100%). Further, in the assay with Lolium perenne (LOLPE), the “LOLPE POST” value is given as 5 (5=80-100%) and the “LOLPE PRE” value is on record as 5 (5=80-100%). In the assay with Setaria faberi (SETFA), the “SETFA POST” value is recorded as 5 (5=80-100%) and the “SETFA PRE” value is recorded as 5 (5=80-100%). For the same molecule, in the assay with Avena fatua (AVEFA), the “AVEFA POST” value is listed as 5 (5=80-100%) and the “AVEFA PRE” value was 5 (5=80-100%).

For the molecule `Cc1cc(-c2ccc(F)cc2)cc(C)c1C1C(=O)CC2(CCN(C(=O)NC(=O)C(C)(C)C)CC2)CC1=O` [Compound A58], the “ALOMY PRE” value in assay [1] is 5 (5=80-100%). In addition, in assay [2], the “ECHCG POST” value is given as 5 (5=80-100%) and the “ECHCG PRE” value is given as 5 (5=80-100%). Further, in the assay on Lolium perenne (LOLPE), the “LOLPE POST” value is 5 (5=80-100%) and the “LOLPE PRE” value is given as 5 (5=80-100%). Also, in the assay with Setaria faberi (SETFA), the “SETFA POST” value is 5 (5=80-100%) and the “SETFA PRE” value was 5 (5=80-100%). Moreover, in the assay on Avena fatua (AVEFA), the “AVEFA POST” value is on record as 5 (5=80-100%) and the “AVEFA PRE” value is recorded as 4 (4=60-79%).

As to `Cc1cc(-c2ccc(C#N)cn2)cc(C)c1C1C(=O)CC2(CCN(C(=O)CC#N)CC2)CC1=O` [Compound A44], in assay [1], the “ALOMY POST” value was 5 (5=80-100%) and the “ALOMY PRE” value is on record as 5 (5=80-100%). Also, in assay [2], the “ECHCG POST” value is listed as 4 (4=60-79%) and the “ECHCG PRE” value was 5 (5=80-100%). Besides, in the assay with Lolium perenne (LOLPE), the “LOLPE POST” value is on record as 5 (5=80-100%) and the “LOLPE PRE” value was 3 (3=40-59%). Also, in the assay on Setaria faberi (SETFA), the “SETFA POST” value is 5 (5=80-100%) and the “SETFA PRE” value is 5 (5=80-100%). Also, in the assay on Avena fatua (AVEFA), the “AVEFA POST” value was 5 (5=80-100%) and the “AVEFA PRE” value is 3 (3=40-59%).

In the case of `COc1cc(-c2ncc(F)cn2)cc(C)c1C1C(=O)CC2(CCN(C(C)=O)CC2)CC1=O` [Compound A17], in assay [1], the “ALOMY POST” value was 5 (5=80-100%) and the “ALOMY PRE” value is 5 (5=80-100%). Moreover, in assay [2], the “ECHCG POST” value is on record as 5 (5=80-100%) and the “ECHCG PRE” value is reported as 5 (5=80-100%). In the assay with Lolium perenne (LOLPE), the “LOLPE POST” value was 5 (5=80-100%) and the “LOLPE PRE” value is recorded as 5 (5=80-100%). Further, in the assay with Setaria faberi (SETFA), the “SETFA POST” value is 5 (5=80-100%) and the “SETFA PRE” value was 5 (5=80-100%). Further, in the assay with Avena fatua (AVEFA), the “AVEFA POST” value is on record as 5 (5=80-100%) and the “AVEFA PRE” value is given as 5 (5=80-100%).

Consider `Cc1cc(-c2ccc(C#N)cn2)cc(C)c1C1C(=O)CC2(CCN(C(=O)C(F)F)CC2)CC1=O` [Compound A29], for which, in assay [1], the “ALOMY POST” value is given as 5 (5=80-100%). Moreover, in assay [2], the “ECHCG POST” value is 4 (4=60-79%) and the “ECHCG PRE” value was 1 (1=0-19%). Further, in the assay with Lolium perenne (LOLPE), the “LOLPE POST” value is recorded as 5 (5=80-100%) and the “LOLPE PRE” value is reported as 1 (1=0-19%). In the assay with Setaria faberi (SETFA), the “SETFA POST” value is given as 5 (5=80-100%) and the “SETFA PRE” value is 5 (5=80-100%). In the assay on Avena fatua (AVEFA), the “AVEFA POST” value was 5 (5=80-100%) and the “AVEFA PRE” value is recorded as 5 (5=80-100%).

Consider `COCC(=O)N1CCC2(CC1)CC(=O)C(c1c(C)cc(-c3ccc(C#N)cn3)cc1C)C(=O)C2` [Compound A25], for which, in assay [1], the “ALOMY POST” value is reported as 5 (5=80-100%) and the “ALOMY PRE” value is recorded as 5 (5=80-100%). Moreover, in assay [2], the “ECHCG POST” value was 5 (5=80-100%) and the “ECHCG PRE” value was 5 (5=80-100%). In addition, in the assay with Lolium perenne (LOLPE), the “LOLPE POST” value is given as 5 (5=80-100%) and the “LOLPE PRE” value is recorded as 5 (5=80-100%). For the same molecule, in the assay with Setaria faberi (SETFA), the “SETFA POST” value was 5 (5=80-100%) and the “SETFA PRE” value is given as 5 (5=80-100%). In the assay on Avena fatua (AVEFA), the “AVEFA POST” value is on record as 5 (5=80-100%) and the “AVEFA PRE” value was 5 (5=80-100%).

For the origin of these results see patent US11980188B2, “Spiro cyclohexanedione derivates as herbicides” (SYNGENTA PARTICIPATIONS AG, priority 2018, dated 2024).
